Converted amounts (≈) assume the structure as drawn. Like-named read-outs stand apart in the source and are kept apart here.
What was measured:
[1] = test system: methicillin-resistant Staphylococcus aureus (ATCC 33591); assay: In vivo mouse intraperitoneal infection, mortality and % survivors over 7 days; conditions: 1 and 5 h post inoculation, MRSA ATCC 33591 i.p., ICR mice
Experimental: Ten male ICR mice weighing 20 grams were inoculated intraperitoneally with an LD90-100 dose (2-3×10^7 CFU/mouse) of methicillin-resistant Staphylococcus aureus (ATCC 33591) in brain-heart infusion broth containing 5% mucin. Compounds were suspended in a vehicle containing 1% cremophore EL (Sigma) in normal saline and were administered subcutaneously in a volume of 0.4 ml per mouse either 1 hour following bacterial inoculation or 1 and 5 hours post inoculation. Animals receiving two doses of drug were injected subcutaneously in the hindquarter one hour post-innoculation and in the neck area, 5 hours post-innoculation. Deaths occurring during the subsequent 7 days are recorded. Mortality and % survivor endpoints are calculated.

[2] = test system: Staphylococcus aureus bacteria (ATCC 9604 SV); assay: Minimal inhibitory concentration (MIC), broth microdilution; type: cell-based; conditions: 24 h at 37° C.
Experimental: (§1) Minimal inhibitory concentrations (MICs) for Staphylococcus aureus bacteria (ATCC 9604 SV) were determined by broth microdilution methodology following National Committee for Clinical Laboratory Standards. In the MIC determinations, the compounds were incorporated into Mueller-Hinton broth (Becton Dickinson Microbiology systems, Cockeyville, Md.) at a series of concentrations. After the test organism was grown overnight in TB broth, the broths were adjusted to the turbidity equivalent to 0.05 McFarland standard. The suspensions were diluted twenty-fold into the broth containing the compounds. […] In the IC50 determination, the method was modified to allow the rapid growth of the organisms. The inoculum suspensions were adjusted to 0.1 McFarland standard and then diluted two-fold into the wells containing TB broth and the compounds. After three to five hours incubation at 37° C., the turbidity was measured at 550 nm and inhibitory activity was defined as the concentration of antimicrobial agent that inhibits 50% growth of the organism in the microdilution wells.

[3] = test system: Staphylococcus aureus bacteria (ATCC 9604 SV); assay: IC50 determination, growth inhibition by turbidity at 550 nm; type: cell-based; conditions: Staphylococcus aureus ATCC 9604 SV; turbidity at 550 nm after 3-5 h at 37° C.
Experimental: as §1

[4] = Staphylococcus aureus ATCC 9604 SV

| SMILES | In Vivo, double dose (% of mice rescued) ([1]; 2 × 2 mg/kg s.c.) | In Vivo, double dose (% of mice rescued) ([1]; 2 × 20 mg/kg s.c.) | MIC [2, 4] | MIC ([2]; ATCC9604, Staphylococcus aureus ATCC 9604 SV, read-out: MIC) | IC50 [3] |
| --- | --- | --- | --- | --- | --- |
| O=C1Nc2ccccc2C1=C1C(=O)N(c2cc(Cl)cc(Cl)c2)N=C1c1ccccc1 [Compound 42] | 0% @ 2 × 2 mg/kg | 0% @ 2 × 20 mg/kg | 1.20 µg/mL (≈ 2.76 µM) |  |  |
| O=C(O)C=C1C(=O)N(c2cc(Cl)cc(Cl)c2)N=C1c1ccccc1 [Compound 46] | 0% @ 2 × 2 mg/kg | 0% @ 2 × 20 mg/kg | 1.50 µg/mL (≈ 4.15 µM) |  |  |
| COc1ccc(C(=O)C2C(=O)N(c3cc(Cl)cc(Cl)c3)N=C2c2ccccc2)cc1 (stereo not shown) [Compound 49] | 0% @ 2 × 2 mg/kg | 25% @ 2 × 20 mg/kg | 10.0 µg/mL (≈ 22.8 µM) |  |  |
| O=C(c1ccccn1)C1C(=O)N(c2cc(Cl)cc(Cl)c2)N=C1c1ccccc1 (stereo not shown) [Compound 50, 2-(3,5-Dichloro-phenyl)-5-phenyl-4-(pyridine-2-carbonyl)-2,4-dihydro-pyrazol-3-one] | 0% @ 2 × 2 mg/kg | 0% @ 2 × 20 mg/kg |  | 10.3 µg/mL (≈ 25.1 µM) |  |
| O=C(O)c1cccc(C=C2C(=O)N(c3cc(Cl)cc(Cl)c3)N=C2c2ccccc2)c1 [Compound 51] | 25% @ 2 × 2 mg/kg | 25% @ 2 × 20 mg/kg | 1.31 µg/mL (≈ 3 µM) |  |  |
| O=C(O)c1ccc(C=C2C(=O)N(c3cc(Cl)cc(Cl)c3)N=C2c2ccccc2)cc1 [Compound 52] | 0% @ 2 × 2 mg/kg | 0% @ 2 × 20 mg/kg | 0.656 µg/mL (≈ 1.5 µM) |  |  |
| CCC1=NN(c2cc(Cl)cc(Cl)c2)C(=O)C1=Cc1cccnc1 [Compound 54] | 0% @ 2 × 2 mg/kg | 12.5% @ 2 × 20 mg/kg | 0.750 µg/mL (≈ 2.17 µM) |  |  |
| CCC1=NN(c2cc(Cl)cc(Cl)c2)C(=O)C1=Cc1ccco1 [Compound 55] | 0% @ 2 × 2 mg/kg | 25% @ 2 × 20 mg/kg | 1.50 µg/mL (≈ 4.48 µM) |  |  |
| CCC1=NN(c2cc(Cl)cc(Cl)c2)C(=O)C1=C1C(=O)Nc2ccccc21 [Compound 56] | 0% @ 2 × 2 mg/kg | 0% @ 2 × 20 mg/kg | 1.50 µg/mL (≈ 3.88 µM) |  |  |
| CCC1=NN(c2cc(Cl)cc(Cl)c2)C(=O)C1=CC(=O)O [Compound 57] | 0% @ 2 × 2 mg/kg | 0% @ 2 × 20 mg/kg | 6.25 µg/mL (≈ 20 µM) |  |  |
| CCC1=NN(c2cc(Cl)cc(Cl)c2)C(=O)C1=Cc1cccc(C(=O)O)c1 [Compound 58] | 25% @ 2 × 2 mg/kg | 12.5% @ 2 × 20 mg/kg | 6.25 µg/mL (≈ 16.1 µM) |  |  |
| CCC1=NN(c2cc(Cl)cc(Cl)c2)C(=O)C1=Cc1ccc(C(=O)O)cc1 [Compound 59] | 12.5% @ 2 × 2 mg/kg | 12.5% @ 2 × 20 mg/kg | 0.400 µg/mL (≈ 1.03 µM) |  |  |
| O=C1CC(Cc2ccccc2)=NN1c1cc(Cl)cc(Cl)c1 [Compound 65] | 0% @ 2 × 2 mg/kg | 0% @ 2 × 20 mg/kg | 0.958 µg/mL (≈ 3 µM) |  |  |
| O=C1C(CCc2ccccn2)C(c2ccccc2)=NN1c1cc(Cl)cc(Cl)c1 (stereo not shown) [Compound 66] | 25% @ 2 × 2 mg/kg | 0% @ 2 × 20 mg/kg | 5.13 µg/mL (≈ 12.5 µM) |  |  |
| O=C(Nc1cc(C(F)(F)F)cc(C(F)(F)F)c1)Nc1c(-c2ccccc2)cnn1-c1ccc(C(F)(F)F)cc1 [Compound 71] |  |  |  |  | 330 nM |
| O=C(Nc1cc(C(F)(F)F)cc(C(F)(F)F)c1)Nc1cc(-c2cccc(Cl)c2)nn1-c1ccc(C(F)(F)F)cc1 [Compound 78] |  |  |  |  | 206 nM |
| O=C(Nc1cc(C(F)(F)F)cc(C(F)(F)F)c1)Nc1cc(-c2ccc(Cl)cc2)nn1-c1ccc(C(F)(F)F)cc1 [Compound 79] |  |  |  |  | 126 nM |
| O=C(Nc1cc(C(F)(F)F)cc(C(F)(F)F)c1)Nc1cc(-c2cccc(C(F)(F)F)c2)nn1-c1ccc(C(F)(F)F)cc1 [Compound 80] |  |  |  |  | 539 nM |
| O=C(Nc1cc(C(F)(F)F)cc(C(F)(F)F)c1)Nc1cc(-c2ccc(OC(F)(F)F)cc2)nn1-c1ccc(C(F)(F)F)cc1 [Compound 81] |  |  |  |  | 159 nM |
| COc1ccc(-c2cc(NC(=O)Nc3cc(C(F)(F)F)cc(C(F)(F)F)c3)n(-c3ccc(C(F)(F)F)cc3)n2)cc1 [Compound 82] |  |  |  |  | 149 nM |
| O=C(Nc1cc(C(F)(F)F)cc(C(F)(F)F)c1)Nc1cc(-c2ccccn2)nn1-c1ccc(C(F)(F)F)cc1 [Compound 85] |  |  |  |  | 359 nM |
| Cc1cc(-c2cc(NC(=O)Nc3cc(Cl)cc(Cl)c3)n(-c3ccc(Br)cc3)n2)no1 [Compound 114] |  |  |  |  | 1630 nM |
| CC(C)(C)c1csc(NC(=O)Nc2cc(C(F)(F)F)cc(C(F)(F)F)c2)n1 [Compound 124] |  |  |  |  | 513 nM |
| O=C(Nc1cc(C(F)(F)F)cc(C(F)(F)F)c1)Nc1nc(CCCO)cs1 [Compound 125] |  |  |  |  | 2070 nM |

From patent publication US6410533B1, “Antibacterial compounds” (Genzyme Corporation, priority 2000, dated 2002)
